Test results as given in patent US20220081395A1, “DISULPHIDE COMPOUNDS” (NEEM BIOTECH LIMITED, priority 2019, published 2022).

How the values were obtained:
Assay type in all cases: cell-based
[1] = test system: Pseudomonas aeruginosa; experiment: Minimum Biofilm Inhibition Concentration (MBIC) assay, biofilm formation, crystal violet; conditions: IC50 of compound as % of IC50 of ajoene in the same experiment; <100% more effective than ajoene
Method: (§1) Compounds were assayed for their ability to inhibit S. aureus or P. aeruginosa biofilm formation as follows.
(§2) All compounds were prepared as a 30 mM stock in DMSO and diluted in tryptic soy broth (TSB) to 48 μM (S. aureus) or 144 μM (P. aeruginosa). The compounds were further serially diluted two-fold from 48 μM to 0.75 μM (S. aureus) or 144 μM to 2.3 μM (P. aeruginosa) and added to a 96-well plate at 100 μl per well. Overnight cultures of bacteria were diluted to an OD600=0.07 in fresh TSB and 100 μl of the diluted bacterial culture was added to the compound containing wells. The bacteria were incubated in the presence of the compounds overnight at 37° C. After incubation, the planktonic bacteria were removed by three washes using H2O and the remaining biofilm was stained using crystal violet and quantified photometrically at A570. Absorbances corresponding to biofilm mass were plotted versus compound concentration and IC50 values were calculated. Reference: O'Toole G A, Microtiter Dish Biofilm Formation Assay J. Vis. Exp (2011).
(§3) MBIC assays of the compounds are carried out alongside ajoene for reference and standardization. The IC50 of ajoene against S. aureus and P.aeruginosa is well-defined and reproducible allowing ajoene to serve as an effective control for the experiment. As such, the IC50 calculated for the tested compounds are compared to the IC50 of ajoene in every experiment and are therefore represented as % of ajoene.

[2] = test system: Staphylococcus aureus; experiment: as above; conditions: IC50 of compound as % of IC50 of ajoene in the same experiment; <100% more effective than ajoene
Method: as §1, §2, §3

[3] = test system: S. aureus; experiment: Bacterial Exudate Scratch Test (BEST), HaCaT monolayer exposed to S. aureus exudate
Method: (§4) Bacterial cultures (S. aureus and P. aeruginosa) were grown prophylactically with test compounds for 24 hours and exudates were collected.
(§5) Microorganisms were prepared by growing in tryptone soy broth (TSB) at 37° C., 150 rpm for 16 hours.
(§6) The exudates were obtained by first placing in a 24-well plate, 1 mL of each compound treated media and vehicle control media in triplicate. 1 mL of untreated TSB was then added to 3 wells for an untreated control and 2 mL TSB was added to 3 wells for sterility control. Except for the sterility control wells, 1 mL of bacterial suspension was added to each well and mixed well. The plate was then incubated in a humidified incubator at 37° C. for 24 hours at 75 rpm. Following the appropriate incubation time, the entire contents of the well were removed and transferred into a sterile centrifuge tube. The tube was then centrifuged at 10,000 rpm for 10 minutes at 4° C. to pellet the biomass. The supernatant was filtered using a Luer Lock […] filter into another sterile tube. The exudate was aliquoted into 500 μl aliquots in 0.5 mL PCR tubes. […]
(§7) The plates were incubated for 20 hours at 37° C., 5% CO2 and images were taken at the time points as required. Scratch ‘size’ was analysed using ImageJ software.
(§8) The rate of cellular proliferation of the HaCaT cells is calculated at 20 hours as a percentage of the initial scratch size at 0 hours.

[4] = test system: P. aeruginosa; experiment: Bacterial Exudate Scratch Test (BEST), HaCaT monolayer exposed to P. aeruginosa exudate
Method: as §4, §5, §6, §7, §8

[5] = test system: P. aeruginosa biofilms; experiment: Inhibition of respiration/viability of established biofilms grown in artificial sputum medium (TTZ viability assay), with tobramycin; conditions: established 24 h biofilms in ASM, compound 5 hours, then 10 μg/ml tobramycin 16 hours; FIG. 3
Method: Compound B was tested for its efficacy to inhibit P. aeruginosa biofilms in artificial sputum medium (ASM) as follows. Overnight cultures of P. aeruginosa were re-seeded to an OD595=0.07 and further diluted 1:100 in ASM and grown for 24 hours at 37° C. to allow for biofilm formation. Compound B was prepared as 30 mM stock in 100% DMSO and established biofilms were treated with the compound at increasing concentrations or left untreated for 5 hours at 37° C. All samples were then treated with 10 μg/ml tobramycin for 16 hours at 37° C. The artificial sputum was liquified using sputasol. The respiratory potential of the biofilms was quantified using a tetrazolium chloride (2,3,5-triphenyl tetrazolium chloride (TTZ)) viability assay.

SMILES | P. aeruginosa MBIC: % of Ajoene positive control IC50 [1] | S. aureus MBIC: % of Ajoene positive control IC50 [2] | other results
COc1ccc(CSSc2ccccc2C[S+]([O-])Cc2ccccc2)cc1 (centres unmarked) | 58 % of Ajoene | 4 % of Ajoene | –
[O-][S+](Cc1ccccc1)Cc1cccc(SSCc2ccc(C(F)(F)F)cc2)c1 (centres unmarked) | 32 % of Ajoene | 34 % of Ajoene | –
CCC(C)CSSc1cccc(C[S+]([O-])Cc2ccccc2)c1 (centres unmarked) | 15 % of Ajoene | 22.5 % of Ajoene | –
C=CCSSc1cccc(CS(=O)(=O)Cc2ccccc2)c1 [drawing 76] | 82 % of Ajoene | 5 % of Ajoene | –
C=CCSSc1ccccc1C[S+]([O-])Cc1ccccc1 (centres unmarked) | 76 % of Ajoene | 89 % of Ajoene | –
CCC(C)CSSc1cccc(CS(=O)(=O)Cc2ccccc2)c1 (centres unmarked) | 94 % of Ajoene | 11 % of Ajoene | –
C=CCSSc1cccc(CS(=O)(=O)Cc2ccccc2)c1 [drawing 83] | – | – | scratch area at 20 hours ([3]; HaCaT exposed to S. aureus exudate pre-treated with test compound (125 pM), vehicle 66% remaining): almost complete closure of the scratch area; effect on inhibition of scratch closure in HaCaT cells ([3]; prophylactic (pre-biofilm) treatment of S. aureus with 125 pM test compound, versus vehicle pre-treatment, FIG. 4): completely rescues the inhibition of scratch closure; scratch area at 20 hours (percentage of initial scratch size at 0 hours) ([4]; HaCaT exposed to P. aeruginosa exudate pre-treated with test compound (250 μM), vehicle 109%, no exudate 9%): 64%; effect on inhibition of scratch closure in HaCaT cells ([4]; prophylactic (pre-biofilm) treatment of P. aeruginosa with 250 μM test compound, versus vehicle pre-treatment, FIG. 5): reduces the inhibition of scratch closure
C=CCSSc1cccc(CS(=O)(=O)Cc2ccco2)c1 | 100 % of Ajoene | 22 % of Ajoene | –
CSSc1cccc(CS(=O)(=O)Cc2ccccc2)c1 [Compound B, 1-(methyldisulfanyl)-3-(phenylmethanesulfonylmethyl)benzene] | – | – | effect on efficacy of tobramycin to inhibit biofilm respiration/viability [5]: enhances the efficacy of tobramycin
[O-][S+](Cc1ccccc1)Cc1cccc(SSCc2ccccc2)c1 (centres unmarked) | 21 % of Ajoene | 62 % of Ajoene | –
CC(C)CSSc1cccc(C[S+]([O-])Cc2ccccc2)c1 (centres unmarked) | 32 % of Ajoene | 90 % of Ajoene | –
O=S(=O)(Cc1ccccc1)Cc1cccc(SSCc2ccc(F)cc2)c1 | 35 % of Ajoene | 69 % of Ajoene | –
COc1ccc(CSSc2cccc(C[S+]([O-])Cc3ccccc3)c2)cc1 (centres unmarked) | 20 % of Ajoene | 43 % of Ajoene | –
[O-][S+](Cc1ccccc1)Cc1ccccc1SSCc1ccccc1 (centres unmarked) | 39.9 % of Ajoene | 89 % of Ajoene | –
